The subject of data set [1] is CFBE41o-. The experiment in a line: Induction of UPR in human CFBE41o- cells expressing CFTR P.Phe508del mutant assessed as upregulation of PERK mRNA expression by RT-PCR analysis. The format is functional, cell-based.
Data set [2] relates to CFBE41o-. The experiment in a line: Induction of UPR in human CFBE41o- cells expressing CFTR P.Phe508del mutant assessed as upregulation of XBP1 mRNA expression by RT-PCR analysis. In kind it is functional, cell-based.
Data set [3] concerns CFBE41o-. Description: Restoration of CFTR chloride channel activity in human CFBE41o- cells expressing CFTR P.Phe508del mutant assessed as increase in transcription of CFTR P.Phe508del mutant mRNA expression by RT-qPCR analysis. The format is functional, cell-based. (In qPCR the cycle at which signal appears reflects the starting amount.)
Data set [4] deals with CFBE41o-. Description: Upregulation of cleaved form of ATF6 protein expression in human CFBE41o- cells expressing CFTR P.Phe508del mutant by Western blot analysis. The format is functional, cell-based. In general terms: Immunoblotting shows a protein as a band on a membrane.
Data set [5] deals with CFBE41o-. The experiment in a line: Upregulation of BiP protein expression in human CFBE41o- cells expressing CFTR P.Phe508del mutant by Western blot analysis. The format is functional, cell-based.
A short description of data set [6]: Cytotoxicity against human CFBE41o- cells expressing CFTR P.Phe508del mutant at 10 uM incubated for 48 hrs by MTT assay. In kind it is toxicity, cell-based. (In general: Tetrazolium assays rely on reduction of a dye to a coloured formazan, in cell work by metabolically active cells.)
A further data set relates to BHK. Description: Restoration of CFTR chloride channel activity in […] BHK cells expressing 3HA-epitope tagged CFTR P.Phe508del mutant assessed as increase in exportation of mutant CFTR to membrane by measuring mature CFTR by immunoblot analysis. In kind it is functional, cell-based.
The subject of data set [7] is CFBE41o-. Description: Upregulation of ATF6 protein expression in human CFBE41o- cells expressing CFTR P.Phe508del mutant by Western blot analysis. The format is functional, cell-based.
Data set [8] concerns CFBE41o-. Description: Induction of UPR in human CFBE41o- cells expressing CFTR P.Phe508del mutant assessed as upregulation of IRE1 mRNA expression by RT-PCR analysis. In kind it is functional, cell-based.
Data set [9] can be described thus: Restoration of CFTR chloride channel activity in human CFBE41o- cells expressing CFTR P.Phe508del mutant assessed as increase in channel function by measuring Cl- current at 10 uM at -80 mV holding potential incubated for 48 hrs by whole cell patch clamp assay (reference value: 32.98 +/- 14.71 pA/pF). The format is functional.

Activity calls are given as the source filed them. The calls are words filed in the database; no cut-off is given here.

With `CCN(CC)Cc1ccc(C(=O)N(CCc2ccccc2OC)[C@@H]2CCNC2)cc1`, the result with CFBE41o- [1], in the data set with CFBE41o- [2], in the data set on CFBE41o- [3], with CFBE41o- [4], with CFBE41o- [5] and with BHK was Active. Moreover, the result in the data set with CFBE41o- [7] and in the data set with CFBE41o- [8] was Active. In addition, the figures for the Activity entry in data set [6] and in data set [9] were “Non-Toxic” and 82.67 pA/pF, respectively.

(Values after ChEMBL document CHEMBL5113449, “Evaluation of aminopyrrolidine amide to improve chloride transport in CFTR-defective cells” (Bioorg Med Chem Lett, 2022).)
